Experiments:
Experiment in all cases: relative viability (nuclei count vs DMSO), 5 days (fraction); higher = more cells survive
PC-3 [JPC-3] = test system: PC-3 [JPC-3]
Outline: (§1)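 Lung cancer cell lines in 1536-well plates got either a single drug or a fixed anchor-drug dose together with five library-drug doses (not always all listed) in √10 steps, by pin tool, on the day after seeding. Nuclei were counted after 5 days, and relative viability is the treated-to-vehicle ratio of nuclei counts. Values are medians of duplicate plates.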

ChaGo-K-1 = test system: ChaGo-K-1
Outline: as §1

NCI-H2342 = test system: NCI-H2342
Outline: as §1

NCI-H661 = test system: NCI-H661
Outline: as §1

NCI-H1975 = test system: NCI-H1975
Outline: as §1

LXF-289 = test system: LXF-289
Outline: as §1

LK-2 = test system: LK-2
Outline: as §1

NCI-H2087 = test system: NCI-H2087
Outline: as §1

NCI-H1944 = test system: NCI-H1944
Outline: as §1

NCI-H358 = test system: NCI-H358
Outline: as §1

NCI-H838 = test system: NCI-H838
Outline: as §1

BEN = test system: BEN
Outline: as §1

LC-2-ad = test system: LC-2-ad
Outline: as §1

LU99A = test system: LU99A
Outline: as §1

SK-MES-1 = test system: SK-MES-1
Outline: as §1

NCI-H596 = test system: NCI-H596
Outline: as §1

LCLC-97TM1 = test system: LCLC-97TM1
Outline: as §1

NCI-H1666 = test system: NCI-H1666
Outline: as §1

NCI-H650 = test system: NCI-H650
Outline: as §1

HCC-78 = test system: HCC-78
Outline: as §1

NCI-H1355 = test system: NCI-H1355
Outline: as §1

NCI-H1651 = test system: NCI-H1651
Outline: as §1

## O=c1cc(N2CCOCC2)oc2c(-c3cccc4c3sc3ccccc34)cccc12 + Cc1nc(Nc2ncc(C(=O)Nc3c(C)cccc3Cl)s2)cc(N2CCN(CCO)CC2)n1 [Dasatinib] (partner 0.075 µM)
PC-3 [JPC-3]; first compound 0.01 µM
  relative viability: 0.97
PC-3 [JPC-3]; first compound 0.03162 µM
  relative viability: 0.974
PC-3 [JPC-3]; first compound 0.1 µM
  relative viability: 1.02
PC-3 [JPC-3]; first compound 0.3162 µM
  relative viability: 0.935
PC-3 [JPC-3]; first compound 1 µM
  relative viability: 0.993
ChaGo-K-1; first compound 0.01 µM
  relative viability: 0.402
ChaGo-K-1; first compound 0.03162 µM
  relative viability: 0.641
ChaGo-K-1; first compound 0.1 µM
  relative viability: 0.517
ChaGo-K-1; first compound 0.3162 µM
  relative viability: 0.609
ChaGo-K-1; first compound 1 µM
  relative viability: 0.73
NCI-H2342; first compound 0.01 µM
  relative viability: 0.352
NCI-H2342; first compound 0.03162 µM
  relative viability: 0.307
NCI-H2342; first compound 0.1 µM
  relative viability: 0.332
NCI-H2342; first compound 0.3162 µM
  relative viability: 0.322
NCI-H2342; first compound 1 µM
  relative viability: 0.325
NCI-H661; first compound 0.01 µM
  relative viability: 0.764
NCI-H661; first compound 0.03162 µM
  relative viability: 0.869
NCI-H661; first compound 0.1 µM
  relative viability: 0.889
NCI-H661; first compound 0.3162 µM
  relative viability: 0.993
NCI-H661; first compound 1 µM
  relative viability: 0.842
NCI-H1975; first compound 0.01 µM
  relative viability: 0.333
NCI-H1975; first compound 0.03162 µM
  relative viability: 0.349
NCI-H1975; first compound 0.1 µM
  relative viability: 0.333
NCI-H1975; first compound 0.3162 µM
  relative viability: 0.378
NCI-H1975; first compound 1 µM
  relative viability: 0.404
LXF-289; first compound 0.01 µM
  relative viability: 0.239
LXF-289; first compound 0.03162 µM
  relative viability: 0.223
LXF-289; first compound 0.1 µM
  relative viability: 0.187
LXF-289; first compound 0.3162 µM
  relative viability: 0.213
LXF-289; first compound 1 µM
  relative viability: 0.247
LK-2; first compound 0.01 µM
  relative viability: 0.329
LK-2; first compound 0.03162 µM
  relative viability: 0.289
LK-2; first compound 0.1 µM
  relative viability: 0.338
LK-2; first compound 0.3162 µM
  relative viability: 0.339
LK-2; first compound 1 µM
  relative viability: 0.279
NCI-H2087; first compound 0.01 µM
  relative viability: 0.989
NCI-H2087; first compound 0.03162 µM
  relative viability: 1.02
NCI-H2087; first compound 0.1 µM
  relative viability: 0.917
NCI-H2087; first compound 0.3162 µM
  relative viability: 0.89
NCI-H2087; first compound 1 µM
  relative viability: 0.887
NCI-H1944; first compound 0.01 µM
  relative viability: 0.218
NCI-H1944; first compound 0.03162 µM
  relative viability: 0.234
NCI-H1944; first compound 0.1 µM
  relative viability: 0.203
NCI-H1944; first compound 0.3162 µM
  relative viability: 0.24
NCI-H1944; first compound 1 µM
  relative viability: 0.225
NCI-H358; first compound 0.01 µM
  relative viability: 0.179
NCI-H358; first compound 0.03162 µM
  relative viability: 0.145
NCI-H358; first compound 0.1 µM
  relative viability: 0.201
NCI-H358; first compound 0.3162 µM
  relative viability: 0.182
NCI-H358; first compound 1 µM
  relative viability: 0.167
NCI-H838; first compound 0.01 µM
  relative viability: 0.278
NCI-H838; first compound 0.03162 µM
  relative viability: 0.301
NCI-H838; first compound 0.1 µM
  relative viability: 0.319
NCI-H838; first compound 0.3162 µM
  relative viability: 0.294
NCI-H838; first compound 1 µM
  relative viability: 0.271
BEN; first compound 0.01 µM
  relative viability: 0.317
BEN; first compound 0.03162 µM
  relative viability: 0.362
BEN; first compound 0.1 µM
  relative viability: 0.3
BEN; first compound 0.3162 µM
  relative viability: 0.354
BEN; first compound 1 µM
  relative viability: 0.266
LC-2-ad; first compound 0.01 µM
  relative viability: 0.536
LC-2-ad; first compound 0.03162 µM
  relative viability: 0.688
LC-2-ad; first compound 0.1 µM
  relative viability: 0.775
LC-2-ad; first compound 0.3162 µM
  relative viability: 0.578
LC-2-ad; first compound 1 µM
  relative viability: 0.527
LU99A; first compound 0.01 µM
  relative viability: 0.552
LU99A; first compound 0.03162 µM
  relative viability: 0.596
LU99A; first compound 0.1 µM
  relative viability: 0.741
LU99A; first compound 0.3162 µM
  relative viability: 0.535
LU99A; first compound 1 µM
  relative viability: 0.421
SK-MES-1; first compound 0.01 µM
  relative viability: 0.413
SK-MES-1; first compound 0.03162 µM
  relative viability: 0.363
SK-MES-1; first compound 0.1 µM
  relative viability: 0.349
SK-MES-1; first compound 0.3162 µM
  relative viability: 0.447
SK-MES-1; first compound 1 µM
  relative viability: 0.337
NCI-H596; first compound 0.01 µM
  relative viability: 0.711
NCI-H596; first compound 0.03162 µM
  relative viability: 0.574
NCI-H596; first compound 0.1 µM
  relative viability: 0.561
NCI-H596; first compound 0.3162 µM
  relative viability: 0.558
NCI-H596; first compound 1 µM
  relative viability: 0.648
LCLC-97TM1; first compound 0.01 µM
  relative viability: 0.904
LCLC-97TM1; first compound 0.03162 µM
  relative viability: 0.86
LCLC-97TM1; first compound 0.1 µM
  relative viability: 0.788
LCLC-97TM1; first compound 0.3162 µM
  relative viability: 0.917
LCLC-97TM1; first compound 1 µM
  relative viability: 0.898
NCI-H1666; first compound 0.01 µM
  relative viability: 0.775
NCI-H1666; first compound 0.03162 µM
  relative viability: 0.787
NCI-H1666; first compound 0.1 µM
  relative viability: 0.755
NCI-H1666; first compound 0.3162 µM
  relative viability: 0.809
NCI-H1666; first compound 1 µM
  relative viability: 0.754
NCI-H650; first compound 0.03162 µM
  relative viability: 0.493
NCI-H650; first compound 0.1 µM
  relative viability: 0.314
NCI-H650; first compound 0.3162 µM
  relative viability: 0.512
NCI-H650; first compound 1 µM
  relative viability: 0.405
HCC-78; first compound 0.01 µM
  relative viability: 0.353
HCC-78; first compound 0.03162 µM
  relative viability: 0.363
HCC-78; first compound 0.1 µM
  relative viability: 0.275
HCC-78; first compound 0.3162 µM
  relative viability: 0.292
HCC-78; first compound 1 µM
  relative viability: 0.32
NCI-H1355; first compound 0.01 µM
  relative viability: 0.789
NCI-H1355; first compound 0.03162 µM
  relative viability: 0.692
NCI-H1355; first compound 0.1 µM
  relative viability: 0.695
NCI-H1355; first compound 0.3162 µM
  relative viability: 0.731
NCI-H1355; first compound 1 µM
  relative viability: 0.682
NCI-H1651; first compound 0.01 µM
  relative viability: 0.421
NCI-H1651; first compound 0.03162 µM
  relative viability: 0.414
NCI-H1651; first compound 0.1 µM
  relative viability: 0.395
NCI-H1651; first compound 0.3162 µM
  relative viability: 0.338
NCI-H1651; first compound 1 µM
  relative viability: 0.519

Source: the supplement of paper PMC10307832
